Results taken from patent US12636261B2, “Treatment of inflammation initiated by the spinal cord injury, the traumatic brain injury, stroke, in inhibition of cerebral and spinal cord edema and of inflammation in neurodegenerative, immune mediated and infectious diseases of the central nervous system” (priority 2021, dated 2026).
Like-named read-outs stand apart in the source and are kept apart here.

Columns and labels:
[1] = Body Weight Change after the SCI surgery; assay type: in vivo, rat (Long Evans); settings: 5 mg/rat/day oral
Description: The Body Weight Change after the SCI surgery is recorded every 3rd day [Kwiecien et al, 2019, 2020b 2021c].
(§1) Healthy male Long Evans rats aged 12 weeks, 330-360 g, were offered a fruit flavored jello cube twice a day for 1 week prior to the surgery and were separated in individual cages 3 days before the surgery. Rats were induced with 5% isoflurane in 95% oxygen flowing at a rate of 1 liter per minute and maintained at 3.5% isoflurane in 96.5% oxygen. The anaesthetized rats had the skin on the back shaved and prepared for surgery with 70% ethyl alcohol and 10% iodine swabs. The skin was cut over the caudal thoracic and lumbar spine and spinal muscles dissected from the vertebral spine of the thoracic 10 (T10) vertebrum and the dorsal arches of this vertebrum removed. A 3Fogarty catheter was inserted via this laminectomy over the intact dura towards the head to place the caudal edge of the 3 mm long balloon at 1 cm rostral to the laminectomy. […] In the initial experiment designed to determine the anti-inflammatory effect of 0.2, 1.0 and 5 mg per day of xanthohumol (Sigma-Aldrich) after the surgery, the rats were offered a jello cube with half of the above dose twice a day, at 8-9 hours and 15-16 hours intervals, and the consumption of the jello cube was observed and recorded every day for 7 days. […]

[2] = system: rat model of SCI (balloon crush spinal cord injury); assay: Hind End Locomotor test in the rat model of SCI; assay type: in vivo, rat (Long Evans); settings: 5 mg/rat/day oral (2.5 mg twice a day in jello), treatment groups 2-8 weeks post-SCI; ANOVA
Description: In the Hind End Locomotor test, performed once every day in unrestrained rats in the cage, the motor function is measured with movements of both hind legs scored 0-6 with 0=complete paralysis and 6=normal gait [Kwiecien et al, 2019, 2020b, 2020c].
as §1, with “removed.” for “removed. A 3Fogarty catheter was inserted via this laminectomy over the intact dura towards the head to place the caudal edge of the 3 mm long balloon at 1 cm rostral to the laminectomy.”
1. […] The motor function of the hind limbs was scored from 0-6 where 0=complete paralysis of both hind legs and 6=normal locomotion.

mice = settings: cited from earlier work
[3] = cited from earlier work
[4] = cited from earlier work; for bioavailability: Wistar rats
[5] = system: phagocytic macrophages in the cavity of injury (COI); assay: Macrophage Count in the Cavity of Injury (COI), histology LFB+H&E; assay type: in vivo, rat (Long Evans); settings: for macrophage numbers in the COI, % of the untreated controls (100%): 7 days post-SCI
Description: The histologic examination is performed in the series of consecutive sections, […], of the spinal cord including the lesion, stained with luxol fast blue and counterstained with hematoxylin and eosin (LFB+H&E). A necrotic and hemorrhagic lesion deep in the spinal cord is infiltrated starting at the day 3, by numerous inflammatory, CD68+/CD163− macrophages that phagocytize myelin-rich necrotic debris and red blood cells. The numbers of macrophages rapidly increase and remain high for 4 weeks after SCI after which they gradually decline [Kwiecien et al, 2020a]. Within the first week post-SCI the deep lesion is transformed into a cavity of injury (COI) when it starts to accumulate excess water from edema in the surrounding spinal cord [Kwiecien et al, 2020a, 2021d]. The macrophage count is performed in a COI in the injured spinal cord of untreated and treated rats in a standardized fashion at fixed periods of time post-surgery to determine a degree of reduction of macrophage numbers related to a tested anti-inflammatory agent [Kwiecien et al, 2019; 2020a, 2020b, 2021c]. This reduction in numbers of macrophages plotted against such numbers in controls is reliably indicative of a therapeutic effect of an anti-inflammatory agent.
Healthy male Long Evans rats aged 12 weeks, 330-360 g, were offered a fruit flavored jello cube twice a day for 1 week prior to the surgery and were separated in individual cages 3 days before the surgery. Rats were induced with 5% isoflurane in 95% oxygen flowing at a rate of 1 liter per minute and maintained at 3.5% isoflurane in 96.5% oxygen. The anaesthetized rats had the skin on the back shaved and prepared for surgery with 70% ethyl alcohol and 10% iodine swabs. The skin was cut over the caudal thoracic and lumbar spine and spinal muscles dissected from the vertebral spine of the thoracic 10 (T10) vertebrum and the dorsal arches of this vertebrum removed. A 3Fogarty catheter was inserted via this laminectomy over the intact dura towards the head to place the caudal edge of the 3 mm long balloon at 1 cm rostral to the laminectomy. The balloon was inflated with 15 µL of sterile saline for 3 minutes, then deflated and the catheter removed. The spinal muscles were closed with absorbable sutures over the laminectomy and the skin incision was closed with stainless steel staples. Before awakening, the rats were administered; 50 μL of a painkiller Anafen (ketoprofen, 100 mg/mL, Merial) subcutaneously for pain, and 50 µL of Baytril antibiotic (enrofloxacin 50 mg/mL, Bayer) intramuscular, and 3 mL of saline subcutaneous. In the initial experiment designed to determine the anti-inflammatory effect of 0.2, 1.0 and 5 mg per day of xanthohumol (Sigma-Aldrich) after the surgery, the rats were offered a jello cube with half of the above dose twice a day, at 8-9 hours and 15-16 hours intervals, and the consumption of the jello cube was observed and recorded every day for 7 days. Each treatment group had 5 rats. In the second phase of the experiment 1 jello cube alone or jello cube with 2.5 mg xanthohumol was offered twice a day for 1, 2, 4, 6, and 8 weeks. Each treatment group had 6-7 rats.
At a required experimental time point; 1, 2, 4, 6, or 8 weeks post-surgery, the SCI rats were overdosed with the sodium pentobarbital (80 mg/kg b.w.) administered intraperitoneally. When in deep plane of anaesthesia, the chest was cut open, 100 international units of heparin sodium injected into the left heart ventricle and a cannula with flowing lactated Ringer's solution inserted into the left ventricle while the right auricle was cut open. After the blood was washed out, the flow of the lactated Ringer's solution was replaced by that of phosphate buffered formalin and the carcass was fixed.
The spine was removed, postfixed in formalin overnight and then placed in formalin supplemented with 8% EDTA, pH 7.0, to decalcify the spinal vertebrae. The decalcifying solution was replaced by fresh one every 2 days for 2 weeks. […]

SCI rats = assay: Toxicity observation in SCI rats under oral xanthohumol; assay type: in vivo; settings: twice a day, 5 mg per day (approx. 15 mg/kg), up to 8 weeks
Description: as §1, with “laminectomy. The balloon was inflated with 15 µL of sterile saline for 3 minutes, then deflated and the catheter removed.” for “laminectomy.”

[6] = cited from earlier work; remark: listed apart in the source
rats = settings: cited from earlier work
[7] = system: rat model of SCI (balloon crush spinal cord injury); assay: Duration of Paralysis of the Urinary Bladder in SCI rats; assay type: in vivo, rat (Long Evans); settings: 5 mg/rat/day oral
Description: as §1
4. The duration of the distention of the urinary bladder that required manual voiding until the normal function of the urinary bladder was restored, in days, was recorded.

[8] = system: rat model of SCI (balloon crush spinal cord injury); assay: Toe Pinch Withdrawal test in the rat model of SCI; assay type: in vivo, rat (Long Evans); settings: 5 mg/rat/day oral, treatment groups 2-8 weeks post-SCI; ANOVA
Description: In the Toe Pinch Withdrawal test, performed once every day in rats held by the tail, the sensory function and the strength of both hind limbs are scored 0-6 with 0=complete loss of reaction to the toe pinch and 6=strong, normal withdrawal in both legs after the toe pinch [Kwiecien et al, 2019, 2020b, 2020c].
Healthy male Long Evans rats aged 12 weeks, 330-360 g, were offered a fruit flavored jello cube twice a day for 1 week prior to the surgery and were separated in individual cages 3 days before the surgery. Rats were induced with 5% isoflurane in 95% oxygen flowing at a rate of 1 liter per minute and maintained at 3.5% isoflurane in 96.5% oxygen. […] In the initial experiment designed to determine the anti-inflammatory effect of 0.2, 1.0 and 5 mg per day of xanthohumol (Sigma-Aldrich) after the surgery, the rats were offered a jello cube with half of the above dose twice a day, at 8-9 hours and 15-16 hours intervals, and the consumption of the jello cube was observed and recorded every day for 7 days. […]
2. The Toe Pinch Withdrawal test [Kwiecien et al, 2021c] was performed once a day in rats held by the tail in the cage and the presence and strength of both hind legs scored 0-6 where 0=no response to the toe pinch and 6=strong, normal withdrawal response to the toe pinch in both legs.

## COc1cc(O)c(CC=C(C)C)c(O)c1C(=O)/C=C/c1ccc(O)cc1 [xanthohumol, 2′,4′,4-trihydroxy-6′-methoxy-3′-prenylchalcone]
[1]; groups 1, 2 and 8 weeks post-SCI
  body weight change vs untreated controls: no statistical difference
[1]; groups treated for 4 and 6 weeks
  body weight recovery post-surgery vs untreated controls: recovered statistically sooner and to a greater degree
[2]
  Hind End Locomotor test score (0-6) vs untreated rats: significantly higher scores
mice
  toxicity after long administration of large doses: no toxicity
[3]
  solubility in water: poorly
[4]; 10 mg/kg intravenously
  half-life: 7.67 h
[4]; oral 40 mg/kg
  bioavailability: 1.16%
[4]; oral 200 mg/kg
  bioavailability: 0.53%
[5]; 0.2 mg/rat/day oral, not statistically significant
  macrophage numbers in the COI, % of the untreated controls (100%): 73.7%
[5]; 1.0 mg/rat/day oral, p=0.026
  macrophage numbers in the COI, % of the untreated controls (100%): 63.9%
[5]; 5 mg/rat/day oral, 1 week post-SCI, second phase
  macrophage counts in the COI, % of the controls: 57.0%
[5]; 5 mg/rat/day oral, 2 weeks post-SCI
  macrophage counts in the COI, % of the controls: 60.7%
[5]; 5 mg/rat/day oral, 4 weeks post-SCI
  macrophage counts in the COI, % of the controls: 14.1%
[5]; 5 mg/rat/day oral, 6 and 8 weeks post-SCI
  macrophages in the COI on histologic sections (FIG. 7): rare or absent
[5]; 5 mg/rat/day oral, 6 weeks post-SCI
  macrophage counts in the COI, % of the controls: 22.9%
[5]; 5 mg/rat/day oral, 8 weeks post-SCI, not statistically different
  macrophage counts in the COI, % of the controls: 32.7%
[5]; 5.0 mg/rat/day oral, dose-response study, p=0.0013
  macrophage numbers in the COI, % of the untreated controls (100%): 53.8%
SCI rats
  toxicity of xanthohumol: not observed
[6]
  bioavailability after oral administration: approximately 1%
rats; 16.9 mg/kg body weight daily oral
  toxic effect of daily oral administration: no toxic effect
rats
  toxicity after long administration of large doses: no toxicity
[7]; 4 weeks treatment group
  recovery of the urinary bladder function vs untreated rats: significantly faster
[7]; 6 weeks treatment group
  recovery of the urinary bladder function vs untreated rats: tendency for the paralyzed urinary bladder to recover faster than in controls
[8]
  Toe Pinch Withdrawal test score (0-6) vs untreated rats: statistically better
